Reference: ChEMBL document CHEMBL5385904, “Design, synthesis and biological evaluation of seco-DSP/DCK derivatives reversing P-glycoprotein-mediated paclitaxel resistance in A2780/T cells” (Eur J Med Chem, 2023)
Active and inactive are the calls of the source. The rule behind the calls is not given here.

Experiments:
[1] = target: T1, ATP-dependent translocase ABCB1 (Homo sapiens, UniProt P08183); test: Inhibition of P-gp in human A2780/Taxol cells assessed as paclitaxel accumulation in cells by measuring increase in fluorescence intensity at 2.5 to 10 uM incubated for 8 hrs; format: cell-based; settings: dose 2.5-10 µM
[2] = Stability in mouse plasma assessed as parent compound remaining measured at 30 mins by LC-MS/MS analysis; format: ADME, cell-free; settings: read-out: Stability
[3] = target: Voltage-gated inwardly rectifying potassium channel KCNH2 (Homo sapiens, UniProt Q12809); test: Inhibition of hERG by patch clamp assay; format: toxicity
[4] = Stability in water assessed as parent compound remaining measured immediately by LC-MS/MS analysis; format: physicochemical; settings: read-out: Stability
[5] = target: T1, ATP-dependent translocase ABCB1; test: Inhibition of P-gp in human A2780/Taxol cells assessed as paclitaxel accumulation in cells by measuring increase in fluorescence intensity at 5 to 20 uM incubated for 8 hrs; format: cell-based; settings: dose 5-20 µM
[6] = target: T1, ATP-dependent translocase ABCB1; test: Inhibition of P-gp-mediated rhodamine-123 efflux in human A2780/Taxol cells assessed as increase in fluorescence intensity at 10 uM by flow cytometric analysis; format: cell-based; settings: 1 h, TDE = time-dependent effect, time < 60 min
[7] = Stability in mouse plasma assessed as parent compound remaining measured immediately by LC-MS/MS analysis; format: ADME, cell-free; settings: read-out: Stability
[8] = tested on: A2780/Taxol; test: Reversal of multi-drug resistance in human A2780/Taxol cells at 5 to 20 uM incubated for 48 hrs by MTT assay; format: functional, cell-based; settings: dose 5-20 µM
[9] = target: T1, ATP-dependent translocase ABCB1; test: Inhibition of P-gp-mediated rhodamine-123 efflux in human A2780/Taxol cells assessed as increase in fluorescence intensity at 10 uM measured upto 60 mins by flow cytometric analysis; format: cell-based; settings: 1 h
[10] = target: T1, ATP-dependent translocase ABCB1; test: Inhibition of P-gp in human A2780/Taxol cells assessed as paclitaxel accumulation in cells by measuring increase in fluorescence intensity incubated for 8 hrs; format: cell-based; settings: at 2.5 to 20 µM, dose 2.5-20 µM
[11] = Stability in human microsomal fraction preincubated for 10 mins followed by NADPH addition and measured upto 60 mins by LC-MS/MS analysis; format: ADME, microsomes, Microsome; settings: time < 70 min, read-out: Stability
[12] = tested on: A2780/Taxol; test: Reversal of multi-drug resistance in human A2780/Taxol cells incubated for 48 hrs by MTT assay; format: functional, cell-based
[13] = target: T1, ATP-dependent translocase ABCB1; test: Inhibition of P-gp in human A2780/Taxol cells assessed as paclitaxel accumulation in cells by measuring increase in fluorescence intensity at 2.5 to 20 uM incubated for 8 hrs; format: cell-based; settings: dose 2.5-20 µM
[14] = tested on: A2780/Taxol; test: Cytotoxicity against human A2780/Taxol cells assessed survival rate at 10 uM incubated for 48 hrs by MTT assay; format: functional
[15] = target: hERG (KCNH2) (Homo sapiens, UniProt Q12809); test: Inhibition of hERG at 40 uM by patch clamp assay relative to control; format: toxicity
[16] = tested on: A2780/Taxol; test: Effect on p-gp expression in human A2780/Taxol cells at 5 to 20 uM by Western blot analysis; format: functional, cell-based; settings: dose 5-20 µM
[17] = tested on: A2780/Taxol; test: Reversal of multidrug resistance in human A2780/Taxol Cells assessed as reversal fold of paclitaxel IC50 at 10 uM incubated for 48 hrs by MTT assay; format: functional
[18] = tested on: A2780; test: Cytotoxicity against human A2780 cells assessed as reduction in cell viability at 10 to 20 uM incubated for 48 hrs by MTT assay; format: functional, cell-based; settings: dose 10-20 µM
[19] = Stability in water assessed as parent compound remaining measured at 30 mins by LC-MS/MS analysis; format: physicochemical; settings: read-out: Stability
[20] = tested on: A2780; test: Reversal of drug-sensitive human A2780 cells at 2.5 to 20 uM incubated for 48 hrs in presence of paclitaxel by MTT assay; format: functional, cell-based; settings: dose 2.5-20 µM

T1 sequence (P08183 whole entry): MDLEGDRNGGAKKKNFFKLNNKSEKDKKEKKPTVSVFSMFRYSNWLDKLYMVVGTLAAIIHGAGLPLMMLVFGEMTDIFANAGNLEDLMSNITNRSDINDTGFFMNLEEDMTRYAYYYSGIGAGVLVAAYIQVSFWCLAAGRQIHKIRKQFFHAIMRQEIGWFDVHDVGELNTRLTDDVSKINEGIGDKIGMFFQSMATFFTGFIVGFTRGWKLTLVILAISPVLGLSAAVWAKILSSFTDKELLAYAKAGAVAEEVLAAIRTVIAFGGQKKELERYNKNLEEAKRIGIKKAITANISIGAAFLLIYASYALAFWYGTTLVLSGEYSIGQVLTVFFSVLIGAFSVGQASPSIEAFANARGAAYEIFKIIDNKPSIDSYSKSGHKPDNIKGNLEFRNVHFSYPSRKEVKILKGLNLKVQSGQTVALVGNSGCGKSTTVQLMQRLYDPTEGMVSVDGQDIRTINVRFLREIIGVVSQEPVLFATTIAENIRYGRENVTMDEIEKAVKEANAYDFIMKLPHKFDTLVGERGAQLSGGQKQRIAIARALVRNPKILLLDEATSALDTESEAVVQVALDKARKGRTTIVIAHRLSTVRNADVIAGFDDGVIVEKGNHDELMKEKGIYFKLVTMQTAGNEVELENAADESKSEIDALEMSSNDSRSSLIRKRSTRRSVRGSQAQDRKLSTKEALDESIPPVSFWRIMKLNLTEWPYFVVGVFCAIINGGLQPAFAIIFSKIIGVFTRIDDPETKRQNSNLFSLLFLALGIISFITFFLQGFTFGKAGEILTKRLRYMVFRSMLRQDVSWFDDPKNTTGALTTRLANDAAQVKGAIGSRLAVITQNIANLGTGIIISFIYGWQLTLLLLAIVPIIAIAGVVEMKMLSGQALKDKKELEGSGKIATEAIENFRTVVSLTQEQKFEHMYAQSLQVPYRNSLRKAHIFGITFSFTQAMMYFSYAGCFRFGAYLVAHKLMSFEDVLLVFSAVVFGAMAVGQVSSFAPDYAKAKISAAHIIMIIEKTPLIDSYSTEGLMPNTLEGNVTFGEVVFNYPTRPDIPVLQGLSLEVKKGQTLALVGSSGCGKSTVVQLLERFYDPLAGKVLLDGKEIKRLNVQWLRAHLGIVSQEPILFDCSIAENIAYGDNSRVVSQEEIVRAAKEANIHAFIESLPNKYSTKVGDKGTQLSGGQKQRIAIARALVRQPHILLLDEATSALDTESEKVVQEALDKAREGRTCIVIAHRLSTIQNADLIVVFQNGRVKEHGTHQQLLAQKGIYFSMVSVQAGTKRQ
Sequence of hERG (KCNH2) (Q12809 whole entry): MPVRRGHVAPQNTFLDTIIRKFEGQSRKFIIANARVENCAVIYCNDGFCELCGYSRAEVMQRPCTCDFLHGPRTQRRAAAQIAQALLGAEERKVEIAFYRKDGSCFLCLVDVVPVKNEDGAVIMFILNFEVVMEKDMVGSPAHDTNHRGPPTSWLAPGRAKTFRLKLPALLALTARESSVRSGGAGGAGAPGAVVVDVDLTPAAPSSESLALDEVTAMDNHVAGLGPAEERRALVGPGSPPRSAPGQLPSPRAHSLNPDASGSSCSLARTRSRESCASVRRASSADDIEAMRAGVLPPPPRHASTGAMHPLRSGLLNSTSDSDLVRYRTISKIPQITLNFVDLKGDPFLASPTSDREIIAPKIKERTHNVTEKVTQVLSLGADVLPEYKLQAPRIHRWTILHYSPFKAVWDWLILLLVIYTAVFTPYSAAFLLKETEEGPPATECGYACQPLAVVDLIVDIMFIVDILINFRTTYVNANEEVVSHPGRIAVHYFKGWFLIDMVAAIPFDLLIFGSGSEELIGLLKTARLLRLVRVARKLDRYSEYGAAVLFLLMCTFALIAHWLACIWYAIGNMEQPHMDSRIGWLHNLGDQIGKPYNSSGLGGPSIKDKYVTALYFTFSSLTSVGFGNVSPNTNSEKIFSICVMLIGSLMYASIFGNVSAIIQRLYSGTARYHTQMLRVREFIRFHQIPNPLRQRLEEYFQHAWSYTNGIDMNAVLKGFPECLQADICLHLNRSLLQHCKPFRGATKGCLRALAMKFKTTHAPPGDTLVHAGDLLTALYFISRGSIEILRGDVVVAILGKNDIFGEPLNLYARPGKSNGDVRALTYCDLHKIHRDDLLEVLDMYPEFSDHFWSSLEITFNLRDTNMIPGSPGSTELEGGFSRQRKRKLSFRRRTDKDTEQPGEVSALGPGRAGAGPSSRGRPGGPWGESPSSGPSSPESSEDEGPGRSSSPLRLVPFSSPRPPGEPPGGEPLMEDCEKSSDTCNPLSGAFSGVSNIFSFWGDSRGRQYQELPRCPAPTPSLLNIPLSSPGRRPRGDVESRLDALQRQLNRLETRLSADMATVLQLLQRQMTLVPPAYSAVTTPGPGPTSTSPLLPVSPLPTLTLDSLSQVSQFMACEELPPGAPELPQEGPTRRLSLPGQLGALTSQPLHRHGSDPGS
Sequence of Voltage-gated inwardly rectifying potassium channel KCNH2 (Q12809 whole entry): as above

inhibition (INH) [1]: Active
remaining at 0.5 h [2]: 0.72%
remaining at 0 min [4]: 100%
inhibition (INH) [5]: Active
inhibition (INH) [6]: Tde
remaining at 0 min [7]: 100%
inhibition (INH) [9]: Active
inhibition (INH) [10]: Dose-Dependent Effect
remaining at 1 h [11]: 0.877%
IC50 [12]: 10 nM
inhibition (INH) [13]: Active
remaining at 0.5 h [19]: 89.1%
SMILES: COc1cc(CC(=O)OCc2c(OC(C)C)ccc3c(C)c(Cc4ccccc4)c(=O)oc23)cc(OC)c1OC
IC50 [3]: > 40000 nM
Activity [8]: Active
Activity ([12]; dose 2.5-20 µM): Dose-Dependent Effect
Cell survival rate [14]: 81%
inhibition at 40 µM [15]: 19%
Activity [16]: Active
fold change (FC) [17]: 425
Activity [18]: Active
Activity [20]: Active
